Experimental data: patent US20250312499A1, “KISSPEPTIN RECEPTOR (KISS1R) TARGETED THERAPEUTICS AND USES THEREOF” (priority 2024, published 2025)
Numbered stars: 1 amine (or outer) side, 2 acyl side, 3 side chain; on linkers, the order of the positions; unused ones are H or OH. Square brackets hold non-standard residues; d marks the D form. Peptide text beside a SMILES is read from it. * marks the point of attachment. DOTA = O=C(O)CN1CCN(CC(=O)O)CCN(CC(=O)*)CCN(CC(=O)O)CC1; Gly(N-(3-F-4-Me-benzyl)) = Cc1ccc(CNCC(=O)*)cc1F; Butanoyl(4-(4-I-phenyl)) = O=C(CCCc1ccc(I)cc1)*; Gly(Nα-4-MeO-benzyl) = COc1ccc(CNCC(=O)*)cc1; X4 = O=C(c1ccc(-c2ccccc2OCCCN[*:1])cc1)[*:2]; Butanoyl(4-(4-MePh)) = Cc1ccc(CCCC(=O)*)cc1; Api(1-amidino) = N=C(N)N1CCC(N)(C(=O)O)CC1; 2Nal = N[C@@H](Cc1ccc2ccccc2c1)C(=O)O; d2Nal = N[C@H](Cc1ccc2ccccc2c1)C(=O)O; 4Pal = N[C@@H](Cc1ccncc1)C(=O)O; d4Pal = N[C@H](Cc1ccncc1)C(=O)O; Api = NC1(C(=O)O)CCNCC1; Ahx = NCCCCCC(=O)O; azaGly = NNC(=O)O

Target: human kisspeptin receptor (Homo sapiens (Human), UniProt Q969F8)
Assay: Human KISS1R binding assay (membrane competition binding)
Settings: 90 min at room temperature; competition with 0.2 nM [125I]-metastin (45-54); Flp-In T-Rex 293 kisspeptin membranes; metal complexes nonradioactive Ga, In, Lu; read-out: hKiSSR Binding Ki (90 min)
Outline: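 Radioligand competition: 0.2 nM [125I]-metastin (45-54) displaced by test ligand (usually 0–10,000 nM) over 90 min at room temperature, pH 7.4 buffer with 0.1% BSA. Receptor source is crude membrane (5–10 μg) from tetracycline-induced Flp-In T-Rex 293 cells. Bound label filtered and counted; Ki from non-linear regression.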

human kisspeptin receptor, sequence (Q969F8 whole entry): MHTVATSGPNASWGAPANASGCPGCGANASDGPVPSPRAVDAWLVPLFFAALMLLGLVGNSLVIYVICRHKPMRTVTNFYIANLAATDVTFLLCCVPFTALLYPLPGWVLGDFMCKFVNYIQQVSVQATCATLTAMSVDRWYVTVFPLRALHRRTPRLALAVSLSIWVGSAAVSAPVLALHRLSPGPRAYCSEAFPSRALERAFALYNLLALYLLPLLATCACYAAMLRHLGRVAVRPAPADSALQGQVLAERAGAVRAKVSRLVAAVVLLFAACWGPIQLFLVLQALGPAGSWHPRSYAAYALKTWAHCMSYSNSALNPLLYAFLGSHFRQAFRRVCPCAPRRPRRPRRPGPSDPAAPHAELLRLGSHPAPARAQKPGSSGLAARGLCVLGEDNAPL

SMILES	Ki [nM]
Cc1ccc(CNCC(=O)N2CCC(NC(=O)[C@H](CC(C)C)NC(=O)NNC(=O)[C@H](Cc3ccccc3)NC(=O)[C@@H](NC(=O)[C@H](CC(N)=O)NC(=O)[C@@H](Cc3c[nH]c4ccccc34)NC(=O)CCCCCNC(=O)CN3CCN(CC(=O)O)CCN(CC(=O)O)CCN(CC(=O)O)CC3)[C@@H](C)O)(C(=O)N[C@@H](Cc3ccncc3)C(N)=O)CC2)cc1F [Compound 290] ({DOTA-Ahx}-[dW]NTF[azaGly]L[Api](Gly(N-(3-F-4-Me-benzyl)))[4Pal]-NH2)	< 10
Cc1ccc(CNCC(=O)N2CCC(NC(=O)[C@H](CC(C)C)NC(=O)NNC(=O)[C@H](Cc3ccccc3)NC(=O)[C@@H](NC(=O)[C@H](CC(N)=O)NC(=O)[C@@H](Cc3ccc(O)cc3)NC(=O)CCCCCNC(=O)CN3CCN(CC(=O)O)CCN(CC(=O)O)CCN(CC(=O)O)CC3)[C@@H](C)O)(C(=O)N[C@@H](Cc3ccncc3)C(N)=O)CC2)cc1F [Compound 291] ({DOTA-Ahx}-[dY]NTF[azaGly]L[Api](Gly(N-(3-F-4-Me-benzyl)))[4Pal]-NH2)	< 10
Cc1ccc(CNCC(=O)N2CCC(NC(=O)[C@H](CC(C)C)NC(=O)NNC(=O)[C@H](Cc3ccccc3)NC(=O)[C@@H](NC(=O)[C@H](CC(N)=O)NC(=O)[C@@H](Cc3ccncc3)NC(=O)[C@@H](Cc3ccc(O)cc3)NC(=O)CCCCCNC(=O)CN3CCN(CC(=O)O)CCN(CC(=O)O)CCN(CC(=O)O)CC3)[C@@H](C)O)(C(=O)N[C@@H](Cc3ccncc3)C(N)=O)CC2)cc1F [Compound 294] ({DOTA-Ahx}-[dY][d4Pal]NTF[azaGly]L[Api](Gly(N-(3-F-4-Me-benzyl)))[4Pal]-NH2)	< 10
Cc1ccc(CNCC(=O)N2CCC(NC(=O)[C@H](CC(C)C)NC(=O)NNC(=O)[C@H](Cc3ccccc3)NC(=O)[C@@H](NC(=O)[C@H](CC(N)=O)NC(=O)[C@@H](Cc3ccncc3)NC(=O)CCCCCNC(=O)CN3CCN(CC(=O)O)CCN(CC(=O)O)CCN(CC(=O)O)CC3)[C@@H](C)O)(C(=O)N[C@@H](Cc3ccncc3)C(N)=O)CC2)cc1F [Compound 295] ({DOTA-Ahx}-[d4Pal]NTF[azaGly]L[Api](Gly(N-(3-F-4-Me-benzyl)))[4Pal]-NH2)	< 10
Cc1ccc(CNCC(=O)N2CCC(NC(=O)[C@H](CC(C)C)NC(=O)NNC(=O)c3ccc(-c4ccccc4OCCCNC(=O)CCCCCNC(=O)CN4CCN(CC(=O)O)CCN(CC(=O)O)CCN(CC(=O)O)CC4)cc3)(C(=O)N[C@@H](Cc3c[nH]c4ccccc34)C(N)=O)CC2)cc1F [Compound 297] ({DOTA-Ahx}-[X4][azaGly]L[Api](Gly(N-(3-F-4-Me-benzyl)))W-NH2)	< 10
Cc1ccc(CNCC(=O)N2CCC(NC(=O)[C@H](CC(C)C)NC(=O)NNC(=O)c3ccc(-c4ccccc4OCCCNC(=O)CN4CCN(CC(=O)O)CCN(CC(=O)O)CCN(CC(=O)O)CC4)cc3)(C(=O)N[C@@H](Cc3c[nH]c4ccccc34)C(N)=O)CC2)cc1F [Compound 298] ({DOTA}-[X4][azaGly]L[Api](Gly(N-(3-F-4-Me-benzyl)))W-NH2)	< 10
COc1ccc(CNCC(=O)N2CCC(NC(=O)[C@H](CC(C)C)NC(=O)NNC(=O)[C@H](Cc3ccccc3)NC(=O)[C@@H](NC(=O)[C@H](CC(N)=O)NC(=O)[C@@H](Cc3ccncc3)NC(=O)[C@@H](Cc3ccc(O)cc3)NC(=O)CCCCCNC(=O)CN3CCN(CC(=O)O)CCN(CC(=O)O)CCN(CC(=O)O)CC3)[C@@H](C)O)(C(=O)N[C@@H](Cc3ccncc3)C(N)=O)CC2)cc1 [Compound 299] ({DOTA-Ahx}-[dY][d4Pal]NTF[azaGly]L[Api](Gly(Nα-4-MeO-benzyl))[4Pal]-NH2)	< 10
CC(C)C[C@H](NC(=O)NNC(=O)[C@H](Cc1ccccc1)NC(=O)[C@@H](NC(=O)[C@H](CC(N)=O)NC(=O)[C@@H](Cc1ccc2ccccc2c1)NC(=O)CN1CCN(CC(=O)O)CCN(CC(=O)O)CCN(CC(=O)O)CC1)[C@@H](C)O)C(=O)NC1(C(=O)N[C@@H](Cc2ccccc2)C(N)=O)CCN(C(=N)N)CC1 [Compound 302] ({DOTA}-[d2Nal]NTF[azaGly]L[Api(1-amidino)]F-NH2)	< 10
Cc1ccc(CNCC(=O)N2CCC(NC(=O)[C@H](CC(C)C)NC(=O)NNC(=O)[C@H](Cc3ccccc3)NC(=O)[C@@H](NC(=O)[C@H](CC(N)=O)NC(=O)[C@@H](Cc3ccc4ccccc4c3)NC(=O)[C@@H](Cc3ccc(O)cc3)NC(=O)CCCCCNC(=O)CN3CCN(CC(=O)O)CCN(CC(=O)O)CCN(CC(=O)O)CC3)[C@@H](C)O)(C(=O)N[C@@H](Cc3c[nH]c4ccccc34)C(N)=O)CC2)cc1F [Compound 304] ({DOTA-Ahx}-[dY][d2Nal]NTF[azaGly]L[Api](Gly(N-(3-F-4-Me-benzyl)))W-NH2)	< 10
Cc1ccc(CNCC(=O)N2CCC(NC(=O)[C@H](CC(C)C)NC(=O)NNC(=O)[C@H](Cc3ccccc3)NC(=O)CCCCCNC(=O)[C@H](Cc3ccc(O)cc3)NC(=O)CNC(=O)CN3CCN(CC(=O)O)CCN(CC(=O)O)CCN(CC(=O)O)CC3)(C(=O)N[C@@H](Cc3c[nH]c4ccccc34)C(N)=O)CC2)cc1F [Compound 305] ({DOTA}-GY[Ahx]F[azaGly]L[Api](Gly(N-(3-F-4-Me-benzyl)))W-NH2)	< 10

Further lines, results first:

Ki [nM]	SMILES
< 10	CC(C)C[C@H](NC(=O)NNC(=O)[C@H](Cc1ccccc1)NC(=O)CCCCCNC(=O)[C@H](Cc1ccc2ccccc2c1)NC(=O)[C@@H](Cc1ccc(O)cc1)NC(=O)CN1CCN(CC(=O)O)CCN(CC(=O)O)CCN(CC(=O)O)CC1)C(=O)NC1(C(=O)N[C@@H](Cc2ccccc2)C(N)=O)CCN(C(=N)N)CC1 [Compound 289] ({DOTA}-[dY][2Nal][Ahx]F[azaGly]L[Api(1-amidino)]F-NH2)
< 10	Cc1ccc(CNCC(=O)N2CCC(NC(=O)[C@H](CC(C)C)NC(=O)NNC(=O)[C@H](Cc3ccccc3)NC(=O)[C@@H](NC(=O)[C@H](CC(N)=O)NC(=O)[C@@H](Cc3ccc4ccccc4c3)NC(=O)CCCCCNC(=O)CN3CCN(CC(=O)O)CCN(CC(=O)O)CCN(CC(=O)O)CC3)[C@@H](C)O)(C(=O)N[C@@H](Cc3ccncc3)C(N)=O)CC2)cc1F [Compound 292] ({DOTA-Ahx}-[d2Nal]NTF[azaGly]L[Api](Gly(N-(3-F-4-Me-benzyl)))[4Pal]-NH2)
< 10	COc1ccc(CNCC(=O)N2CCC(NC(=O)[C@H](CC(C)C)NC(=O)NNC(=O)[C@H](Cc3ccccc3)NC(=O)[C@@H](NC(=O)[C@H](CC(N)=O)NC(=O)[C@@H](Cc3c[nH]c4ccccc34)NC(=O)[C@@H](Cc3ccc(O)cc3)NC(=O)CCCCCNC(=O)CN3CCN(CC(=O)O)CCN(CC(=O)O)CCN(CC(=O)O)CC3)[C@@H](C)O)(C(=O)N[C@@H](Cc3ccncc3)C(N)=O)CC2)cc1 [Compound 293] ({DOTA-Ahx}-[dY][dW]NTF[azaGly]L[Api](Gly(Nα-4-MeO-benzyl))[4Pal]-NH2)
< 10	Cc1ccc(CNCC(=O)N2CCC(NC(=O)[C@H](CC(C)C)NC(=O)NNC(=O)[C@H](Cc3ccccc3)NC(=O)[C@@H](NC(=O)[C@H](CC(N)=O)NC(=O)[C@@H](Cc3ccncc3)NC(=O)CCCCCNC(=O)CN3CCN(CC(=O)O)CCN(CC(=O)O)CCN(CC(=O)O)CC3)[C@@H](C)O)(C(=O)N[C@@H](Cc3c[nH]c4ccccc34)C(N)=O)CC2)cc1F [Compound 296] ({DOTA-Ahx}-[d4Pal]NTF[azaGly]L[Api](Gly(N-(3-F-4-Me-benzyl)))W-NH2)
< 10	CC(C)C[C@H](NC(=O)NNC(=O)[C@H](Cc1ccccc1)NC(=O)[C@@H](NC(=O)[C@H](CC(N)=O)NC(=O)[C@@H](Cc1ccc2ccccc2c1)NC(=O)[C@@H](Cc1ccc(O)cc1)NC(=O)CCCCCNC(=O)CN1CCN(CC(=O)O)CCN(CC(=O)O)CCN(CC(=O)O)CC1)[C@@H](C)O)C(=O)NC1(C(=O)N[C@@H](Cc2ccccc2)C(N)=O)CCN(C(=N)N)CC1 [Compound 300] ({DOTA-Ahx}-[dY][d2Nal]NTF[azaGly]L[Api(1-amidino)]F-NH2)
< 10	CC(C)C[C@H](NC(=O)NNC(=O)[C@H](Cc1ccccc1)NC(=O)[C@@H](NC(=O)[C@H](CC(N)=O)NC(=O)[C@@H](Cc1ccc2ccccc2c1)NC(=O)CCCCCNC(=O)CN1CCN(CC(=O)O)CCN(CC(=O)O)CCN(CC(=O)O)CC1)[C@@H](C)O)C(=O)NC1(C(=O)N[C@@H](Cc2ccccc2)C(N)=O)CCN(C(=N)N)CC1 [Compound 301] ({DOTA-Ahx}-[d2Nal]NTF[azaGly]L[Api(1-amidino)]F-NH2)
< 10	Cc1ccc(CNCC(=O)N2CCC(NC(=O)[C@H](CC(C)C)NC(=O)NNC(=O)[C@H](Cc3ccccc3)NC(=O)CCCCCNC(=O)[C@H](Cc3ccc4ccccc4c3)NC(=O)[C@H](Cc3ccc(O)cc3)NC(=O)CNC(=O)CN3CCN(CC(=O)O)CCN(CC(=O)O)CCN(CC(=O)O)CC3)(C(=O)N[C@@H](Cc3c[nH]c4ccccc34)C(N)=O)CC2)cc1F [Compound 307] ({DOTA}-GY[2Nal][Ahx]F[azaGly]L[Api](Gly(N-(3-F-4-Me-benzyl)))W-NH2)
< 10	Cc1ccc(CCCC(=O)NCCCC[C@@H](NC(=O)CCCCCNC(=O)CN2CCN(CC(=O)O)CCN(CC(=O)O)CCN(CC(=O)O)CC2)C(=O)N[C@H](Cc2ccc(O)cc2)C(=O)N[C@H](Cc2ccc3ccccc3c2)C(=O)N[C@@H](CC(N)=O)C(=O)N[C@H](C(=O)N[C@@H](Cc2ccccc2)C(=O)NNC(=O)N[C@@H](CC(C)C)C(=O)NC2(C(=O)N[C@@H](Cc3ccccc3)C(N)=O)CCN(C(=N)N)CC2)[C@@H](C)O)cc1 [Compound 309] ({DOTA-Ahx}-[dK](Butanoyl(4-(4-MePh)))[dY][d2Nal]NTF[azaGly]L[Api(1-amidino)]F-NH2)
< 10	CC(C)C[C@H](NC(=O)NNC(=O)[C@H](Cc1ccccc1)NC(=O)[C@@H](NC(=O)[C@H](CC(N)=O)NC(=O)[C@@H](Cc1ccc2ccccc2c1)NC(=O)[C@@H](Cc1ccc(O)cc1)NC(=O)[C@@H](CCCCNC(=O)CCCc1ccc(I)cc1)NC(=O)CCCCCNC(=O)CN1CCN(CC(=O)O)CCN(CC(=O)O)CCN(CC(=O)O)CC1)[C@@H](C)O)C(=O)NC1(C(=O)N[C@@H](Cc2ccccc2)C(N)=O)CCN(C(=N)N)CC1 [Compound 310] ({DOTA-Ahx}-[dK](Butanoyl(4-(4-I-phenyl)))[dY][d2Nal]NTF[azaGly]L[Api(1-amidino)]F-NH2)
